In US10626087B2, “Indoline and tetrahydroquinoline sulfonyl inhibitors of dimetalloenzymes and use of the same” (priority 2015, dated 2020):
Read-outs that look alike come from different tables or passages of the source.

Target: NDM-1 (Klebsiella pneumoniae, UniProt C7C422)
Experiment: Inhibition of NDM-1 assay (CHROMACEF hydrolysis, absorbance at 442 nm)
Format: biochemical
Details: for Activity w/100 uM [I]: enzyme activity with 100 uM inhibitor; for Activity w/200 uM [I]: enzyme activity with 200 uM inhibitor
Protocol: The ability of the compounds described herein to inhibit NDM-1 was determined in the following way.
A Substrate Working Solution was prepared from CRHROMACEF (6 μM) and Tween-20 (0.02% v/v) in water. An Enzyme Working Solution was prepared with NDM-1 (0.5 μg/mL), Hepes (0.1 M), pH 7 and Tween-20 (0.02% v/v). An Inhibitor Working Solution was prepared from 50 mM of the inhibitor in DMSO. The final assay conditions were 1 mL, Hepes (50 mM), pH 7, Tween-20 (0.02% v/v), CHROMACEF (3 uM), Δ35 NDM-1 (0.25 μg/mL). Extra zinc was omitted from these assays because extra ZnSO4 interferes with the metal binding groups in inhibitors.
[…] Supplemental DMSO was added to reach a final volume of 4 μL. NDM-1 Working Solution ([…]) was added to the cuvette and the inhibitor and enzyme were allowed to incubate for about 20 minutes. The reaction was initiated by added 0.5 mL Substrate Working Solution. The solution was mixed quickly, but gently to avoid bubble formation. […] to start the reaction. The reaction was mixed fast, but gently. The change in absorbance ΔΔAbs442nm/min was measured for each inhibitor from the linear slope from each inhibitor concentration.

[1] = *estimated or actual from a single point, target not given, values match the NDM-1 IC50 column, read-out: IC50 μM*
[2] = fitted IC50 with error, read-out: NDM-1 IC50

Chain of NDM-1 (C7C422 36-270 limits assumed, looked up): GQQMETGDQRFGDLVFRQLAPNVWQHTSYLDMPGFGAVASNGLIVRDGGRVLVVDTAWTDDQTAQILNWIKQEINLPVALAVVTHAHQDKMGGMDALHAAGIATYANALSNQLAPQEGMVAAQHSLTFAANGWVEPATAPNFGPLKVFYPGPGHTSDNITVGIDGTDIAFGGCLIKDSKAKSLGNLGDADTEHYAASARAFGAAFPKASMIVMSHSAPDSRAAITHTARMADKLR

Structure (SMILES) | IC50 [1] | inhibition at 5 µM | inhibition at 50 µM (at 50 μM) | other results
O=C(O)c1ccc(CN2C(=O)c3ccccc3C2=O)cc1 |  |  |  | Activity w/100 uM [I]: 54%; Activity w/200 uM [I]: 38%
CC(=O)N1CCc2cc(Br)c(S(=O)(=O)n3cc(C4(O)CCCCC4)nn3)cc21 |  |  |  | Activity w/100 uM [I]: 53%; Activity w/200 uM [I]: 53%
CC(=O)N1CCc2cc(Br)c(S(=O)(=O)/C=C(\N)CC(O)c3ccccc3)cc21 (stereo not drawn) | 2.6 µM | 75.4% |  | inhibition at 25 µM: 98.5%; IC50 [2]: 2.62 µM
CC(=O)N1CCc2cc(Br)c(S(=O)(=O)/N=C(\N)Cc3ccccn3)cc21 | 14 µM |  | 97% | inhibition at 10 µM: 42.9%
CN/C(CC(C)(C)O)=N\S(=O)(=O)c1cc2c(cc1Br)CCN2C(C)=O | 49 µM |  | 54.4% | 
CC(=O)N1CCc2cc(Br)c(S(=O)(=O)NC(=O)CC(C)(C)O)cc21 | 8.7 µM |  | 93% | inhibition at 10 µM: 62.7%; IC50 [2]: 8.74 µM
CC(=O)N1CCc2cc(Cl)c(S(=O)(=O)NC(=O)CC(O)c3ccccc3)cc21 (stereo not drawn) | 100 µM | 15.5% | 31.9% | 
CC(=O)N1CCc2cc(Br)c(S(=O)(=O)NC(=O)CC(O)c3ccccc3)cc21 (stereo not drawn) | 100 µM | 8.1% | 28.8% | 
CC(=O)NS(=O)(=O)c1ccc2c(c1)N(C(C)=O)CC2 | 300 µM |  | 10% | inhibition at 200 µM: 34%
CC(=O)N1CCc2cc(F)c(S(=O)(=O)NC(=O)CC(O)c3ccccc3)cc21 (stereo not drawn) |  |  | 12.8% | NDM-1 % Inhibition (at 50 μM): 13.7%
CC(=O)NS(=O)(=O)c1cc2c(cc1Br)CCN2C(C)=O |  |  |  | inhibition at 500 µM (at 500 μM): 18%
CC(=O)N1CCc2cc(Br)c(S(=O)(=O)n3cc(C(C)O)nn3)cc21 (stereo not drawn) | 2.9 µM | 73.8% |  | inhibition at 25 µM: 95.1%; IC50 [2]: 2.91 µM
CC(=O)N1CCc2cc(Br)c(S(=O)(=O)n3cc(C(C)(C)O)nn3)cc21 | 100 µM |  |  | inhibition at 100 µM: 47%; inhibition at 200 µM: 47%; IC50 [2]: 100 µM
CC(=O)N1CCc2cc(Br)c(S(=O)(=O)n3cc(-c4ccccc4)nn3)cc21 |  |  |  | inhibition at 100 µM: 25%
CC(=O)N1CCc2cc(Br)c(S(=O)(=O)/N=C(\N)Cc3ccccc3)cc21 [MM-86] |  |  |  | Activity w/100 uM [I]: 63%; Activity w/200 uM [I]: 46%
CO/C(CC(C)(C)O)=N\S(=O)(=O)c1cc2c(cc1Br)CCN2C(C)=O [MM-94] |  |  |  | Activity w/100 uM [I]: 96%; Activity w/200 uM [I]: 35%
CC(=O)N1CCc2cc(Br)c(S(=O)(=O)/N=C(\N)CC(C)(C)O)cc21 [drawing 95] |  |  |  | Activity w/100 uM [I]: 26%; Activity w/200 uM [I]: 6.4%
CC(=O)N1CCc2cc(Br)c(S(=O)(=O)/N=C(\N)Cc3ccccc3)cc21 [drawing 109] | 110 µM |  |  | inhibition at 100 µM: 55.5%; inhibition at 200 µM: 73.8%; IC50 [2]: 110 µM

More lines, main results first:

IC50 [1] | inhibition at 5 µM | inhibition at 50 µM (at 50 μM) | Structure (SMILES) | other results
1 µM | 78.3% | 99% | CC(=O)N1CCc2cc(Cl)c(S(=O)(=O)/N=C(\N)CCO)cc21 | 
2 µM | 77.8% |  | COC(=O)C/C(N)=N/S(=O)(=O)c1cc2c(cc1Br)CCN2C(C)=O | 
3 µM | 58.4% | 96.9% | CC(=O)N1CCc2cc(Cl)c(S(=O)(=O)/C=C(\N)CC(O)c3ccccc3)cc21 (stereo not drawn) | 
9 µM |  | 90.3% | CC(=O)N1CCc2cc(Br)c(S(=O)(=O)/N=C(\N)CCO)cc21 | inhibition at 10 µM: 54%
55 µM |  | 42% | CC(=O)N1CCc2cc(Br)c(S(=O)(=O)/N=C(\N)CC3(O)CCCC3)cc21 | inhibition at 200 µM: 64.6%
60 µM |  | 35% | CC(=O)N1CCc2cc(Br)c(S(=O)(=O)/N=C(\N)CC3(O)CCCCC3)cc21 | 
80 µM | 19.9% | 32.7% | CC(=O)N1CCc2cc(Cl)c(S(=O)(=O)/N=C(\N)CC(C)(C)O)cc21 | 
22 µM |  |  | CC(=O)N1CCc2cc(Br)c(S(=O)(=O)/N=C(\N)CC(C)(C)O)cc21 [drawing 104] | Ki: 6 µM; inhibition at 100 µM: 74%; inhibition at 200 µM: 93.6%; IC50 [2]: 22 µM
